Columns and labels:
GSNOR = GSNOR (Homo sapiens (Human), UniProt P11766); test: GSNOR IC50 (method in incorporated applications); type: biochemical
human NK3 receptor [1] = biological target: T1, human NK3 receptor (Homo sapiens (Human), UniProt P29371); test: biochemical
Procedure: Evaluation of the affinity of compounds for the human NK3 receptor from transfected CHO cells was performed using an antagonist radioligand binding assay. The antagonist activity of a representative subset of test compounds was evaluated over a range of concentrations, and the results were expressed as IC50 values.
Receptor binding assays were performed using crude membranes prepared from CHO cells expressing human NK3 receptor. Osanetant (SR142801), a non-peptide NK3 antagonist, was used as a ligand, and SB222200 was used as a positive control reference compound. The assay was performed with cell membrane homogenates (24 μg protein) incubated for 120 min at 22° C. with 0.4 nM [^3H]SR142801 in the absence or presence of the test compound in a buffer containing 20 mM Hepes/NaOH (pH 7.4), 120 mM NaCl, 1 mM MnCl2, 0.01% bacitracin, 0.002% aprotinin and 0.1% BSA. Following incubation, the samples were filtered rapidly under vacuum through glass fiber filters (GF/B, Packard) that had been presoaked with 0.3% PEI. The filters were rinsed several times with ice-cold 50 mM Tris/HCl using a 96-sample cell harvester (Unifilter, Packard), dried, and counted for radioactivity in a scintillation counter (Topcount, Packard) using a scintillation cocktail (Microscint 0, Packard). […] The standard reference compound, SB222200, was tested in each experiment. Nonspecific binding was determined in the presence of 10 μM SB222200. The specific ligand binding to the receptor is defined as the difference between the total binding and the nonspecific binding. The IC50 values (concentration causing a half-maximal inhibition of control specific binding) and Hill coefficients (nH) were determined by non-linear regression analysis of the competition curves generated with mean replicate values using Hill equation curve fitting (Y=D+[(A−D)/(1+(C/C50)^nH)], where Y=specific binding, D=minimum specific binding, A=maximum specific binding, C=compound concentration, C50=IC50, and nH=slope factor). […] The inhibition constants (Ki) were calculated using the Cheng Prusoff equation (Ki=IC50/(1+(L/KD)), where L=concentration of radioligand in the assay, and KD=affinity of the radioligand for the receptor). A scatchard plot was used to determine the Kd.

human NK3 receptor [2] = biological target: T1, human NK3 receptor; test: Human NK3 receptor binding assay at 1 uM; details: 1 μM test compound; [3H]SR142801, CHO cell membranes; read-out: percent inhibition at 1 μM
Procedure: Antagonist activity was evaluated at a concentration of 1 μM for a representative subset of test compounds, and the results were expressed as the percent inhibition at that concentration.
Each test compound was evaluated at a single concentration of 1 μM. […] The results are expressed as a percent of control specific binding ((measured specific binding/control specific binding)×100) obtained in the presence of the test compounds.

human NK3 receptor [3] = biological target: T1, human NK3 receptor; test: Human NK3 receptor binding assay at 10 μM; details: 10 μM test compound; [3H]SR142801, CHO cell membranes; read-out: percent inhibition at 10 μM
Procedure: Antagonist activity was evaluated at a concentration of 10 μM for a representative subset of test compounds, and the results were expressed as the percent inhibition at that concentration.
Each test compound was evaluated at a single concentration of 10 μM. […] The results are expressed as a percent of control specific binding ((measured specific binding/control specific binding)×100) obtained in the presence of the test compounds.

human NK3 receptor [4] = biological target: T1, human NK3 receptor; test: Human neurokinin NK3 receptor antagonist effect (agonist-induced Ca2+ mobilization, CHO cells); type: cell-based; details: 10 uM; response to 1 nM [MePhe7]-NKB, CHO cells transfected with human NK3 receptor
Procedure: This model evaluates the antagonist activity of compounds in CHO cells transfected with the human NK3 receptor. Antagonist activity is determined by measuring the effect of compounds on agonist-induced cytosolic Ca^2+ ion mobilization using a fluorimetric detection method.
The cells are suspended in DMEM buffer (Invitrogen) supplemented with 0.1% FCS and distributed in 96-well microplates at a density of 3×10^4 cells/well. The fluorescent probe (Calcium4, Molecular Device) is mixed with probenicid in HBSS buffer plus 20 mM Hepes (pH 7.4) (Invitrogen) and added into each well. The probe is allowed to equilibrate with the cells for 60 minutes at 37° C. followed by a 15 minute incubation at 22° C. Thereafter, the assay plates are positioned in a microplate reader (CellLux, PerkinElmer) and the test compound, reference antagonist or HBSS buffer is added. 5 minutes later, 1 nM [MePhe^7]-NKB or HBSS buffer (basal control) is added, and changes in fluorescence intensity are measured.
The standard reference antagonist is SB 222200, which is tested in each experiment at several concentrations to generate a concentration-response curve from which an IC50 value can be calculated.

human NK3 receptor [5] = biological target: T1, human NK3 receptor; test: Human neurokinin NK3 receptor agonist effect (Ca2+ mobilization, CHO cells); type: cell-based; details: highest tested concentration; CHO cells transfected with human NK3 receptor
Procedure: This model evaluates the agonist activity of compounds in CHO cells transfected with the human NK3 receptor. Agonist activity is determined by measuring the effect of compounds on cytosolic Ca^2+ ion mobilization using a fluorimetric detection method.
The transfected CHO cells are suspended in DMEM buffer (Invitrogen) supplemented with 0.1% FCS, then distributed in 96-well microplates at a density of 3×10^4 cells/well. The fluorescent probe (Calcium4, Molecular Device) is mixed with probenicid in HBSS buffer plus 20 mM Hepes (pH 7.4) (Invitrogen) and added into each well. The probe is allowed to equilibrate with the cells for 60 minutes at 37° C. followed by a 15 minute incubation at 22° C. Thereafter, the assay plates are positioned in a microplate reader (CellLux, PerkinElmer) and the test compound, reference agonist or HBSS buffer (basal control) is added. Changes in fluorescence intensity, which varies proportionally to the free cytosolic Ca^2+ ion concentration, are then measured. For stimulated control measurements, [MePhe^7]-NKB at 10 nM is added in separate assay wells, and the results are expressed as a percent of the control response to 10 nM [MePhe^7]-NKB.
The standard reference agonist is [MePhe^7]-NKB, which is tested in each experiment at several concentrations to generate a concentration-response curve from which an EC50 value can be calculated.

T1 sequence (P29371 whole entry): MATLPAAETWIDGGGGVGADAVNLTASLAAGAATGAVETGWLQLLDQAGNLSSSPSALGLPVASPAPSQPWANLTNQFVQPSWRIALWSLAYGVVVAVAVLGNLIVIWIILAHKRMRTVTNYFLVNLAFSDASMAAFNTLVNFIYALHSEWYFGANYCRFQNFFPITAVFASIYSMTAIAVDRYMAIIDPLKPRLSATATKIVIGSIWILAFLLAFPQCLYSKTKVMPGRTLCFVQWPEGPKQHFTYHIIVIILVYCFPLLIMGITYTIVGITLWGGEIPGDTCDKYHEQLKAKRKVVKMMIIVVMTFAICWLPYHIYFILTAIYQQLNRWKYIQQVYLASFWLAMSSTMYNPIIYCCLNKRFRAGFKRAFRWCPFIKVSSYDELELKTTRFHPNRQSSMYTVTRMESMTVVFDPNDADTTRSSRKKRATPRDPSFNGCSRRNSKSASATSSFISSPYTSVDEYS
GSNOR, sequence (P11766 whole entry): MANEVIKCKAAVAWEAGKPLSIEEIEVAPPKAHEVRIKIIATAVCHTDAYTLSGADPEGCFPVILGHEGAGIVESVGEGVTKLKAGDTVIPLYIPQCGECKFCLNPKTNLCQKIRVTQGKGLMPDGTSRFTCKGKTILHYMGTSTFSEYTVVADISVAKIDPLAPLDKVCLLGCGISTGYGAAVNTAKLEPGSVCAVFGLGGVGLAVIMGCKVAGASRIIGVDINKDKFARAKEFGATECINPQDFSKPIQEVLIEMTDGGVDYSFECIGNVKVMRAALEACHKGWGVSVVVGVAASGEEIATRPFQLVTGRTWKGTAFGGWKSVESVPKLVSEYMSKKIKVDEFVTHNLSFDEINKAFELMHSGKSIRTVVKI

SMILES: Cn1cc(C2=C(c3ccsc3)C(c3ccc(C(=O)O)c(O)c3)NC(=O)N2)cn1 (racemic) [2-hydroxy-4-(6-(1-methyl-1H-pyrazol-4-yl)-2-oxo-5-(thiophen-3-yl)-1,2,3,4-tetrahydropyrimidin-4-yl)benzoic acid]
- IC50 (GSNOR): 39 nM

SMILES: Cn1cc(C2=C(c3ccsc3)[C@H](c3ccc(C(=O)O)c(O)c3)NC(=O)N2)cn1 [2-hydroxy-4-(6-(1-methyl-1H-pyrazol-4-yl)-2-oxo-5-(thiophen-3-yl)-1,2,3,4-tetrahydropyrimidin-4-yl)benzoic acid]
- IC50 (GSNOR): 23 nM

SMILES: CCOc1cc(C2NC(=O)NC(c3ccccc3)=C2c2ccccc2)cc(C#N)c1O (centres unmarked) [3-ethoxy-2-hydroxy-5-(2-oxo-5,6-diphenyl-1,2,3,4-tetrahydropyrimidin-4-yl)benzonitrile]
- IC50 (human NK3 receptor [1]): ≤ 1000 nM
- inhibition at 1 µM (human NK3 receptor [2]): > 50%
- inhibition at 10 µM (human NK3 receptor [3]): > 50%

SMILES: CCOc1cc(C2NC(=O)NC(c3ccccc3)=C2c2ccccc2)cc2oc(=O)[nH]c12 (centres unmarked) [4-ethoxy-6-(2-oxo-5,6-diphenyl-1,2,3,4-tetrahydropyrimidin-4-yl)benzo[d]oxazol-2(3H)-one]
- IC50 (human NK3 receptor [1]): ≤ 1000 nM
- inhibition at 1 µM (human NK3 receptor [2]): > 50%

SMILES: CCOc1cc(C2NC(=O)NC(c3ccccc3)=C2c2cccc(Cl)c2)cc([N+](=O)[O-])c1O (centres unmarked) [5-(3-chlorophenyl)-4-(3-ethoxy-4-hydroxy-5-nitrophenyl)-6-phenyl-3,4-dihydropyrimidin-2(1H)-one]
- IC50 (human NK3 receptor [1]): ≤ 1000 nM
- inhibition at 1 µM (human NK3 receptor [2]): > 50%

SMILES: CCOc1cc(C2NC(=O)NC(c3ccccc3)=C2C2CCCCC2)cc([N+](=O)[O-])c1O (centres unmarked) [5-cyclohexyl-4-(3-ethoxy-4-hydroxy-5-nitrophenyl)-6-phenyl-3,4-dihydropyrimidin-2(1H)-one]
- IC50 (human NK3 receptor [1]): ≤ 100 nM
- inhibition at 1 µM (human NK3 receptor [2]): > 50%
- inhibition at 10 µM (human NK3 receptor [3]): > 50%
- antagonist effect (human NK3 receptor [4]): antagonist effect was seen
- agonist effect (human NK3 receptor [5]): no effect was seen
